Legend:
4T1-luc2 cells [1] = assay: Dry ice dead cell assay (cryo-induced cell death), fluorescence and radioactivity read-out; assay type: cell-based, mouse; settings: 100 nM, 15 min incubation, 4T1 cells; for accumulation in the dead cells area by radioactivity (RA) measurement: phosphor imaging
Protocol: In vitro, cell death was studied using a cryo-induced cell death assay as previously described. In short, 4T1-luc2 cells were seeded onto 24-well tissue culture plates (Sigma-Aldrich) and grown until confluent. After discarding the medium, a bar of dry ice 3–5 mm in diameter was applied to the underside of the culture well for 20 s. Subsequently, the cells were incubated in the dark for 15 min at RT with HQ4 at a concentration of 100 nM. After incubation, the samples were gently washed with phosphate-buffered saline (PBS) and subsequently scanned for fluorescence using the Odyssey Infrared Imager 9120 (LI-COR) and for radioactivity via phosphor imaging on the Typhoon 9410 imager (GE Healthcare).
Fig. 2 In vitro necrosis avid properties of [^111In]DTPA-HQ4 by fluorescence and radioactivity measurements. a Necrotic cell death in confluent monolayers of 4T1 mouse breast cancer cells was induced by applying dry ice to the underside of the culture well. Cells were subsequently incubated for 15 min with one of the following: HQ4, HQ4-DTPA, [^111In]DTPA-HQ4, [^111In]DTPA, or ^111In-Cl3 (100 nM, 10 μg). After subsequent washing with PBS, cells were imaged either for fluorescence (FLI, upper panel) or for radioactivity (RA, lower panel). NL = not labeled. b Calculated signal-to-background (S/B) ratio (FLI and RA) of the different compounds obtained from the dry ice assay. The S/B ratio was defined as the signal intensity obtained from the area of dead cells in the center of the well divided by the signal intensity obtained from an area of living cells of the same size in the periphery.

4T1 tumor bearing mice = assay: Biodistribution (gamma counting of organs) in 4T1 tumor bearing mice, model of spontaneous tumor necrosis; assay type: in vivo, mouse; settings: 24 h after i.v. injection, 10 μg, 30-35 MBq
Protocol: Approximately 1 × 10^5 4T1-luc2 cells, suspended in 15 μl PBS, were implanted bilateral and subcutaneously onto the upper back of nude mice. Tumors were grown until they reached a size of 6–7 mm in diameter which developed roughly after 1.5–2 weeks of tumor implantation.
(§1) To study the specificity of the radiolabeled HQ4-DTPA versus radiolabeled DTPA in vivo, 10 μg [^111In]DTPA-HQ4 (=10 nmol per mouse) or 10 μg [^111In]DTPA was injected i.v. into mice bearing 4T1-luc2 tumors (n = 3 and 4, respectively). The total injected dose (ID) in each mouse was determined in a dose-calibrator (VDC101, Veenstra Instruments, Joure, the Netherlands).
After the last imaging time point, mice were sacrificed and several tissues were excised, weighed, and counted for radioactivity (Wizard2 2470 automatic gamma scintillation counter, Perkin Elmer, USA) to determine the percentage of the injected dose per gram (%ID/g). The %ID/g was calculated as follows: (((MBq measured in tissue/injected dose) × 100 %) / weight of tissue).
Fig. 3 Optical imaging, SPECT, and biodistribution of [^111In]DTPA-HQ4 in 4T1 breast tumor bearing mice. a Whole body FLI (coronal view) obtained 6–72 h after tail vein injection of [^111In]DTPA-HQ4 (10 nmol, 30–35 MBq). […] Six, 24, 48, and 72 h after probe injection, mice (n = 3 per time point) were sacrificed and the organs, body fluids, and tumors were dissected, weighed, and measured for radioactivity in a gamma counter. At each time point, the amount of radioactivity in the organs is expressed as percentage of the injected dose divided by […] (%ID/w). d TUNEL-stained histological section of a representative 4T1 mouse breast tumor showing a large area of necrosis (brown).
Supplementary Figure 4: Biodistribution of [111In]DTPA. a) Biodistribution of the free chelate [111In]DTPA in 4T1 tumor bearing mice. 24h after probe injection (10 µg, 30-35 MBq), mice (n=4) were sacrificed and the organs, body fluids and tumors were dissected, weighted and measured for radioactivity in a gamma counter. […]

[2] = Radioactivity remaining in the whole mouse body after injection (clearance); assay type: in vivo; settings: for total injected dose retained in the body: whole mouse body
Protocol: as §1
Supplementary Figure 4: Biodistribution of [111In]DTPA. a) Biodistribution of the free chelate [111In]DTPA in 4T1 tumor bearing mice. 24h after probe injection (10 µg, 30-35 MBq), mice (n=4) were sacrificed and the organs, body fluids and tumors were dissected, weighted and measured for radioactivity in a gamma counter. At each time point, the amount of radioactivity in each organ and tumor is expressed as percentage of the injected dose divided by the weight (%ID/w). b) Total amount of remaining [111In]DTPA-HQ4 and [111In]DTPA in the whole mouse body (% of ID) at the indicated time points 6 to 72h after probe injection.
(§2) (1 picture or pasted object on this page, not shown here)

4T1-luc2 cells [3] = assay: In vitro MTS viability assay; assay type: cell-based; settings: Mus musculus, 24 h, 4T1 cells, read-out: IC50 of induced cell death
Protocol: 4T1-luc2 cells were plated in a 96-well plate (Costar) in 100 μl medium at a density of 10,000 cells per well and left over night to adhere. The next day, the medium was replaced with medium containing the experimental compounds: HQ4, HQ4-DTPA, HQ5, and Gambogic acid (GA), three wells per condition. After 24 h, cell viability was measured using a nonradioactive colorimetric MTS viability assay (Promega Benelux) according to the manufacturer’s protocol. Optical absorption was measured at 490 nm with a Versamax absorbance microplate reader (Molecular Devices).
Supplementary Figure 3: MTS cell viability assay of various agents.
Confluent cultures of 4T1 cells were incubated for 24hr with various concentrations HQ4, HQ4-DTPA, HQ5 or the natural anti-cancer compound Gambogic Acid (GA). Relative cell viability (%) was expressed as a percentage relative to the untreated control.
GA induced cell death with an IC50 of around 6µM.
as §2

For `CCCNS(=O)(=O)c1cccc2c3c(ccc12)[N+](CCCCCC(=O)NCCOCCOCCNC(=O)CN(CCN(CCN(CC(=O)O)CC(=O)O)CC(=O)O)CC(=O)O)=C(/C=C/C=C/C=C1/N(CCCCS(=O)(=O)[O-])c2ccc4ccccc4c2C1(C)C)C3(C)C` [HQ4-DTPA], the “accumulation in the area of dead cells by fluorescence imaging” value (4T1-luc2 cells [1]; FLI) was “strongly accumulated in the area of dead cells”.
For `[Cl][In]([Cl])[Cl]` [^111In-Cl3, ^111indium-chloride], the “accumulation in the dead cells area by radioactivity (RA) measurement” value (4T1-luc2 cells [1]) was “neither [^111In]DTPA nor free ^111In-Cl3 accumulated in the dead cells area”.
With `O=C([O-])CN(CCN(CC(=O)[O-])CC(=O)[O-])CCN(CC(=O)[O-])CC(=O)[O-].[111In+3].[H+].[H+]` [[^111In]DTPA] the “accumulation in the dead cells area by radioactivity (RA) measurement” value (4T1-luc2 cells [1]) was “neither [^111In]DTPA nor free ^111In-Cl3 accumulated in the dead cells area”, the radioactivity in kidneys (4T1 tumor bearing mice) was 5.0 %ID/w and the radioactivity in liver (4T1 tumor bearing mice) was 0.6 %ID/w. The radioactivity in tumors (4T1 tumor bearing mice) was 0.5 %ID/w, the “total injected dose retained in the body” value ([2]; 24 h after injection) was 10% and the “total injected dose retained in the body” value ([2]; 48 h after injection) was 8%. For the same molecule, the “clearance rate relative to [111In]DTPA-HQ4” value ([2]; fold faster than [111In]DTPA-HQ4) was “about 8 fold”.
In the case of `CC(C)=CCC[C@]1(C)C=Cc2c(O)c3c(c(CC=C(C)C)c2O1)O[C@]12C(=C[C@@H]4C[C@H]1C(C)(C)O[C@@]2(C/C=C(/C)C(=O)O)C4=O)C3=O` [GA, Gambogic acid], the IC50 (4T1-luc2 cells [3]) is reported as roughly 6 µM.

— publication PMC5093207, “Pre-clinical Evaluation of a Cyanine-Based SPECT Probe for Multimodal Tumor Necrosis Imaging” (Molecular Imaging and Biology, 2016)
